In ChEMBL document CHEMBL4311969, “Polygala tenuifolia-Acori tatarinowii herbal pair as an inspiration for substituted cinnamic α-asaronol esters: Design, synthesis, anticonvulsant activity, and inhibition of lactate dehydrogenase study” (Eur J Med Chem, 2019):
pKi: −log10 of the molar value. Several values for one entry are separate records, joined by “and”; a condition that tells them apart may be missing. Equal entries are not always repeated. Activity calls are given as the source filed them. The calls are words filed in the database; no cut-off is given here.

Experiments:
Mus musculus [1] = experiment: Anticonvulsant activity in Kunming mouse assessed as reduction in ScPTZ-induced clonic seizure at 300 mg/kg, ip administered 0.5 hrs before ScPTZ stimulation relative to control; assay type: functional; set-up: scale not given: the % may be the effect or the level left
Mus musculus [2] = experiment: Anticonvulsant activity in Kunming mouse assessed as reduction in ScPTZ-induced tonic seizure rate at 100 mg/kg, ip administered 0.5 hrs before ScPTZ stimulation relative to control; assay type: functional; set-up: scale not given: the % may be the effect or the level left
Mus musculus [3] = experiment: Anticonvulsant activity in Kunming mouse assessed as MES-induced hind limb extension at 50 mg/kg, ip administered 0.5 and 2 hrs before MES stimulation relative to control; assay type: functional
Mus musculus [4] = experiment: Anticonvulsant activity in Kunming mouse assessed as reduction in ScPTZ-induced tonic seizure rate at 300 mg/kg, ip administered 0.5 hrs before ScPTZ stimulation relative to control; assay type: functional; set-up: scale not given: the % may be the effect or the level left
Mus musculus [5] = experiment: Anticonvulsant activity in Kunming mouse assessed as reduction in Sc3-MP-induced tonic seizure rate at 300 mg/kg, ip administered 0.5 hrs before Sc3-MP stimulation relative to control; assay type: functional; set-up: scale not given: the % may be the effect or the level left
Mus musculus [6] = experiment: Anticonvulsant activity in Kunming mouse assessed as reduction in ScPTZ-induced seizure at 100 mg/kg, ip administered 1 hr relative to control; assay type: functional; set-up: scale not given: the % may be the effect or the level left
[7] = Neurotoxicity against ip dosed Kunming mouse assessed as time remained in rod measured at 0.5 hrs by rotarod test; assay type: toxicity, organism-based; conditions: in vivo
Mus musculus [8] = experiment: Anticonvulsant activity in ip dosed Kunming mouse assessed as reduction in ScPTZ-induced seizure administered 0.5 hrs before ScPTZ stimulation; assay type: functional
[9] = Neurotoxicity against Kunming mouse assessed as time remained in rod at 100 mg/kg, ip administered 0.5 to 2 hrs by rotarod test; assay type: toxicity, organism-based; conditions: in vivo
Mus musculus [10] = experiment: Anticonvulsant activity in Kunming mouse assessed as reduction in ScPTZ-induced seizure at 100 mg/kg, ip administered 0.5 hrs before ScPTZ stimulation relative to control; assay type: functional; set-up: scale not given: the % may be the effect or the level left
Mus musculus [11] = experiment: Anticonvulsant activity in Kunming mouse assessed as reduction in ScPTZ-induced seizure at 300 mg/kg, ip administered 0.25 to 2 hrs before ScPTZ stimulation relative to control; assay type: functional; set-up: scale not given: the % may be the effect or the level left
Mus musculus [12] = experiment: Anticonvulsant activity in Kunming mouse assessed as reduction in ScPTZ-induced seizure at 100 mg/kg, ip administered 0.25 to 2 hrs before ScPTZ stimulation relative to control; assay type: functional
Mus musculus [13] = experiment: Anticonvulsant activity in Kunming mouse assessed as reduction in Sc3-MP-induced mortality rate at 300 mg/kg, ip administered 0.5 hrs before Sc3-MP stimulation relative to control; assay type: functional; set-up: scale not given: the % may be the effect or the level left
Mus musculus [14] = experiment: Anticonvulsant activity in Kunming mouse assessed as reduction in Sc3-MP-induced clonic seizure rate at 300 mg/kg, ip administered 0.5 hrs before Sc3-MP stimulation relative to control; assay type: functional; set-up: scale not given: the % may be the effect or the level left
Mus musculus [15] = experiment: Anticonvulsant activity in ip dosed Kunming mouse assessed as MES-induced hind limb extension administered 0.5 hrs before MES stimulation; assay type: functional
Mus musculus [16] = experiment: Anticonvulsant activity in Kunming mouse assessed as MES-induced hind limb extension at 100 mg/kg, ip administered 0. 5 to 4 hrs before MES stimulation relative to control; assay type: functional
[17] = Protective index, ratio of TD50 for neurotoxicity against ip dosed Kunming mouse assessed as time remained in rod measured at 0.5 hrs by rotarod test to ED50 for anticonvulsant activity in ip dosed Kunming mouse assessed as reduction in ScPTZ-induced seizure administered 0.5 hrs before ScPTZ stimulation; assay type: toxicity, organism-based; conditions: in vivo, read-out: PI
Mus musculus [18] = experiment: Anticonvulsant activity in Kunming mouse assessed as MES-induced hind limb extension at 50 mg/kg, ip administered 0.5 to 4 hrs before MES stimulation relative to control; assay type: functional
Mus musculus [19] = experiment: Anticonvulsant activity in Kunming mouse assessed as MES-induced hind limb extension at 100 mg/kg, ip administered 0. 5 to 2 hrs before MES stimulation; assay type: functional, organism-based
Mus musculus [20] = experiment: […] activity in ip dosed Kunming mouse assessed as reduction in formalin-induced paw licking administered 0.5 hrs before formalin stimulation; assay type: functional
Mus musculus [21] = experiment: Anticonvulsant activity in Kunming mouse assessed as reduction in Sc3-MP-induced seizure ip dosed measured at 0.5 hrs before Sc3-MP stimulation; assay type: functional
Homo sapiens [22] = species on record: Homo sapiens; experiment: Inhibition of human LDH1 at 0.5 mM using sodium pyruvate as substrate by UV-VIS spectrophotometry method relative to control
Mus musculus [23] = experiment: Anticonvulsant activity in Kunming mouse assessed as reduction in ScPTZ-induced clonic seizure at 100 mg/kg, ip administered 0.5 hrs before ScPTZ stimulation relative to control; assay type: functional; set-up: scale not given: the % may be the effect or the level left
Homo sapiens [24] = species on record: Homo sapiens; experiment: Inhibition of human LDH5 at 0.5 mM using sodium pyruvate as substrate by UV-VIS spectrophotometry method relative to control
[25] = Protective index, ratio of TD50 for neurotoxicity against ip dosed Kunming mouse assessed as time remained in rod measured at 0.5 hrs by rotarod test to ED50 for […] activity in ip dosed Kunming mouse assessed as reduction in formalin-induced paw licking administered 0.5 hrs before formalin stimulation; assay type: toxicity, organism-based; conditions: in vivo, read-out: PI
[26] = Protective index, ratio of TD50 for neurotoxicity against ip dosed Kunming mouse assessed as time remained in rod measured at 0.5 hrs by rotarod test to ED50 for anticonvulsant activity in ip dosed Kunming mouse assessed as MES-induced hind limb extension administered 0.5 hrs; assay type: toxicity, organism-based; conditions: in vivo, read-out: PI
[27] = Protective index, ratio of TD50 for neurotoxicity against ip dosed Kunming mouse assessed as time remained in rod measured at 0.5 hrs by rotarod test to ED50 for anticonvulsant activity in ip dosed Kunming mouse assessed as reduction in Sc3-MP-induced seizure administered 0.5 hrs before Sc3-MP stimulation; assay type: toxicity, organism-based; conditions: in vivo, read-out: PI
[28] = Noncompetitive inhibition of human LDH1 at 0.5 mM using sodium pyruvate as substrate by UV-VIS spectrophotometry method based Lineweaver-Burk plot analysis
Mus musculus [29] = experiment: Anticonvulsant activity in Kunming mouse assessed as MES-induced hind limb extension at 100 mg/kg, ip administered 0. 5 hrs before MES stimulation relative to control; assay type: functional
[30] = Noncompetitive inhibition of human LDH5 at 0.5 mM using sodium pyruvate as substrate by UV-VIS spectrophotometry method based Lineweaver-Burk plot analysis
Mus musculus [31] = experiment: Anticonvulsant activity in Kunming mouse assessed as MES-induced hind limb extension at 100 mg/kg, ip administered 3 hrs before MES stimulation; assay type: functional, organism-based
Mus musculus [32] = experiment: Anticonvulsant activity in Kunming mouse assessed as reduction in Sc3-MP-induced seizure at 300 mg/kg, ip administered 0.25 and 1 hrs before Sc3-MP stimulation relative to control; assay type: functional, organism-based
Mus musculus [33] = experiment: Anticonvulsant activity in Kunming mouse assessed as reduction in ScPTZ-induced seizure at 100 mg/kg, ip administered 0.25 and 1 hrs before ScPTZ stimulation relative to control; assay type: functional; set-up: scale not given: the % may be the effect or the level left
Mus musculus [34] = experiment: Anticonvulsant activity in Kunming mouse assessed as reduction in Sc3-MP-induced seizure at 300 mg/kg, ip administered 0.5 hrs before Sc3-MP stimulation relative to control; assay type: functional; set-up: scale not given: the % may be the effect or the level left
Homo sapiens [35] = species on record: Homo sapiens; experiment: Inhibition of human LDH1 at 0.5 mM using sodium pyruvate as substrate measured for 60 sec for every 5 mins by LC/MS-MS analysis
Homo sapiens [36] = species on record: Homo sapiens; experiment: Inhibition of human LDH5 at 0.5 mM using sodium pyruvate as substrate measured for 60 sec for every 5 mins by LC/MS-MS analysis
Mus musculus [37] = experiment: Anticonvulsant activity in Kunming mouse assessed as MES-induced hind limb extension at 100 mg/kg, ip administered 4 hrs before MES stimulation; assay type: functional, organism-based
Mus musculus [38] = experiment: Anticonvulsant activity in Kunming mouse assessed as reduction in ScPTZ-induced mortality rate at 300 mg/kg, ip administered 0.5 hrs before ScPTZ stimulation relative to control; assay type: functional; set-up: scale not given: the % may be the effect or the level left

SMILES | Activity (Mus musculus [1]) [%] | Activity (Mus musculus [2]) [%] | Activity (Mus musculus [3]) [%] | Activity (Mus musculus [4]) [%] | Activity (Mus musculus [5]) [%] | TD50 at 0.5 h [7] | ED50 (Mus musculus [8]) | Activity [9] | Activity (Mus musculus [11]) [%] | Activity (Mus musculus [12]) | Activity (Mus musculus [14]) [%] | ED50 (Mus musculus [15]) | Activity (Mus musculus [16]) | selectivity ratio at 0.5 h [17] | Activity (Mus musculus [18]) [%] | Activity (Mus musculus [19]) | ED50 (Mus musculus [20]) | ED50 (Mus musculus [21]) | inhibition (Homo sapiens [22]) | Activity (Mus musculus [23]) [%] | further results
COc1cc(OC)c(OC)cc1/C=C/COC(=O)/C=C/c1ccc(OC)c(OC)c1 | 100 | 100 | 50 | 0 | 75 | > 1000 mg/kg and > 2410 µmol/kg | 173 mg/kg and 418 µmol/kg | Non-Toxic | 50 | inactive | 100 | 58.1 mg/kg and 140 µmol/kg | 25 - 100% | > 5.8 | 50 | Active | 93.3 mg/kg and 225 µmol/kg | > 300 mg/kg and > 724 µmol/kg | Active | 100 | Activity (Mus musculus [6]): 75%; Activity (Mus musculus [10]): 100%; Activity (Mus musculus [13]): 25%; inhibition (Homo sapiens [24]): Active; selectivity ratio at 0.5 h [25]: > 10.7; selectivity ratio at 0.5 h [26]: > 17.2; selectivity ratio at 0.5 h [27]: 3.3
COc1cc(OC)c(OC)cc1/C=C/COC(=O)/C=C/c1c(OC)ccc(OC)c1OC | 100 | 100 | 50 | 50 | 75 | > 1000 mg/kg and > 2250 µmol/kg | 212 mg/kg and 476 µmol/kg | Non-Toxic | 50 | inactive | 100 | 120 µmol/kg and 53.5 mg/kg | 25 - 100% | 4.72 | 50 | Active | 180 to 225 µmol/kg | > 300 mg/kg and > 675 µmol/kg | Active | 100 | pKi [28]: 4.92; Activity (Mus musculus [29]): 100%; Activity (Mus musculus [13]): 25%; pKi [30]: 5.45; inhibition (Homo sapiens [24]): Active; selectivity ratio at 0.5 h [25]: 12.5; selectivity ratio at 0.5 h [26]: > 18.7; selectivity ratio at 0.5 h [27]: 3.3
COc1cc(OC)c(OC)cc1/C=C/COC(=O)/C=C/c1cc(OC)c(OC)c(OC)c1 | 100 | 100 | 75 | 25 | 75 | 2220 µmol/kg and 988 mg/kg | 204 mg/kg and 458 µmol/kg | Non-Toxic | 50 | inactive | 100 | 74.7 µmol/kg and 33.2 mg/kg | 25 - 100% | 4.9 | 50 | Active | 85.5 mg/kg and 192 µmol/kg | > 200 mg/kg and > 450 µmol/kg | 10% | 100 | pKi [28]: 4.85; Activity (Mus musculus [29]): 100%; Activity (Mus musculus [31]): Active; Activity (Mus musculus [32]): Active; Activity (Mus musculus [33]): 75%; pKi [30]: 5.47; Activity (Mus musculus [34]): 50%; inhibition (Homo sapiens [24]): 13%; selectivity ratio at 0.5 h [25]: 11.6; inhibition (Homo sapiens [35]): 10%; inhibition (Homo sapiens [36]): 13%; selectivity ratio at 0.5 h [26]: 29.8; selectivity ratio at 0.5 h [27]: 3.3
COc1ccccc1/C=C/C(=O)OC/C=C/c1cc(OC)c(OC)cc1OC | 100 | 100 | 75 | 50 | 100 | > 1000 mg/kg and 2600 µmol/kg | 240 mg/kg and 625 µmol/kg | Non-Toxic | 50 | inactive | 100 | 39 mg/kg and 101 µmol/kg | 25 - 100% | > 4.2 | 50 | Active | 113 mg/kg and 294 µmol/kg | > 300 mg/kg and 780 µmol/kg | inactive | 100 | Activity (Mus musculus [37]): Active; Activity (Mus musculus [29]): 100%; Activity (Mus musculus [38]): 25%; inhibition (Homo sapiens [24]): inactive; selectivity ratio at 0.5 h [25]: > 8.9; inhibition (Homo sapiens [35]): 2%; inhibition (Homo sapiens [36]): 2%; selectivity ratio at 0.5 h [26]: > 25.6; selectivity ratio at 0.5 h [27]: 3.3
